Results as given in patent US20150352075A1, “Treatment of Alzheimer's and Cognitive Impairment With Andrographolides” (INNOBIOSCIENCE, LLC, priority 2013, published 2015).

Legend:
[1] = system: HEK293T cells; assay: TOPflash/FOPflash luciferase reporter assay; assay type: cell-based
Method: 150,000 HEK293T cells were seeded in triplicate per condition and kept for 24 hours at 37° C. with 5% CO2. The cultures were transfected with TOPflash or FOPflash (400 ng), which are firefly-luciferase reporter DNA constructs (Milipore), using LipofectAMINE 2000 (Invitrogen). To control for transfection pRL-TK (10 ng) was included in all transfections. […] Values were normalized by the renilla value from the same well. To statistically compare treatments ANOVA was used.

[2] = system: Wnt/β-catenin pathway in hippocampal slices; assay: Wnt pathway mechanism in hippocampal slices (sFRP, Dkk-1, Dvl-3 mobility shift, time course); assay type: cell-based, mice; conditions: for time at which total levels of β-catenin increased: slices from 2 month-old wild-type mice, 5 μM ANDRO, Wnt3a conditioned medium or 10 μM 6-B10
Method: Slice preparation. […] Transverse slices (250-300 μm) from the dorsal hippocampus were cut under oxygen-saturated cold artificial cerebrospinal fluid using a Vibroslice microtome (VSL, World Precision Instruments, Inc WPI, Sarasota, Fla.). After obtained, slices were incubated in ACSF for at least than one hour at room temperature, in order to stabilize activity. In every moment during dissection, slicing and experimentation slices were oxygenated with 95% oxygen-5% carbon dioxide.
Briefly, tissues were homogenized in RIPA buffer (10 mM Tris-Cl, pH 7.4, EDTA 5 mM, 1% NP-40, 1% sodium deoxycholate, and 1% SDS) supplemented with a protease inhibitor mixture (1 mM PMSF, 2 μg/mL aprotinin, 1 μg/mL pepstatin and 10 μg/mL benzamidine) and phosphatase inhibitors (25 mMNaF, 100 mM Na3VO4, 1 mM EDTA and 30 μM Na4P207) using a Potter homogenizator and then passed sequentially through different caliber syringes. […] Protein concentration was determined using the BCA Protein Assay Kit (Pierce). Samples were resolved by […] 10% SDS-PAGE and transferred to a PVDF membrane. The reactions were followed by incubation with anti-mouse, anti-goat or anti-rabbit IgG peroxidase conjugated (Pierce, Rockford, Ill.) and developed using an ECL kit (Western Lightning Plus ECL, PerkinElmer).

[3] = system: CA3-CA1 connections in hippocampal slices; assay: Electrophysiology (fEPSP, PPF, LTP, LTD) in Wt hippocampal slices; assay type: cell-based, mice; conditions: hippocampal slices, LFS
Method: Slices were transferred to an experimental chamber (2 ml), superfused (3 ml/min, at 20-22° C.) with gassed ACSF and visualized by trans-illumination with a binocular microscope (MSZ-10, Nikon, Melville, N.Y.). […] The stimulation was in the Stratum Radiatum within 100-200 μm from the recording site. The paired pulse facilitation index was calculated by ((R2−R1)/R1), where R1 and R2 were the peak amplitudes of the first and second fEPSP respectively. To generate LTP we used Theta Burst Stimulation (TBS) consisting of 5 trains of stimulus with an inter-train interval of 20 s. Each train consisted of 10 bursts at 5 Hz and each burst having 4 pulses at 100 Hz. To generate LTD we used Low Frequency Stimulation (LFS) consisting in 900 paired pulses at 1 Hz. Recordings were filtered at 2.0-3.0 kHz, sampled at 4.0 kHz using an A/D converter, and stored with pClamp 10 (Molecular Devices). Evoked postsynaptic responses were analyzed off-line, using an analysis software (pClampfit, Molecular Devices), which allowed visual detection of events, computing only those events that exceeded and arbitrary threshold.

[4] = system: Wnt target genes in cultured hippocampal neurons; assay: PCR array of Wnt target genes in hippocampal neurons; assay type: cell-based, rat
Method: Primary culture of rat hippocampal neurons. […] PCR-ARRAY. RNA from hippocampal neurons was extracted using Trizol. Quantification and purity of RNA preparations were checked by absorbance using Nanodrop ND-2000. Only preparations with a 260/280 nm ratio ≧1.8, a 260/230 nm ratio ≧1.7 and no sign of RNA degradations, verified by agarose gel electrophoresis with Gel Red™ were used. Genomic DNA was degraded. Using RT2First-Strand cDNA Synthesis kit (SuperArray), 1 ng total RNA was reverse transcribed and then real-time PCR was performed by adding cDNA directly to PCR Master Mix, containing SYBR Green and ROX. The mixtures were then aliquoted into a 96-well PCR array plates, which profiles the expression of 84 Wnt target genes from rat. The PCR was run on ABI StepOnePlus, with 1 cycle of 10 min at 95° C. followed by 40 cycles of 15s at 95° C. and 1 min at 60° C. […] Treatment of neuronal cultures. Primary hippocampal cultures of neurons 14 DIV were washed twice in neurobasal medium and maintained for 1 hour. Next ANDRO (10 μM) and 6-BIO (10 μM) were added to different time periods.

`O=C1Nc2cc(Br)ccc2/C1=C1/Nc2ccccc2/C1=N\O` [6-B10, 6-bromoindirubin-3′-oxime, reference compound] was tested, and the FOPflash reporter activity ([1]; 10 μM, 24 h) was “not in the FOPflash”, the TOPflash reporter activity ([1]; 10 μM, 24 h) was “significant increase in the TOPflash” and the “increase of luciferase reporter over control” value ([1]; HEK293T, TOPflash) was about 6 fold. For the same molecule, the “speed of increase in GSK3β pSer-9 and decrease in pTyr-216” value ([2]; compared to Wnt-3a treatment) was “faster”, the “time at which total levels of β-catenin increased” value [2] was 15 min and the “induction of LTD” value [3] was “complete inhibition of the induction of LTD”. For the same molecule, the Cdh-1 gene expression [4] was “does not by 6-B10”, the “number of Wnt target genes specifically modulated” value ([4]; 9 h, of the 86 genes analyzed) was 4 genes and the “number of modulated Wnt target genes shared by both treatments” value ([4]; 9 h, of the 86 genes analyzed) was 4.

B1: Wnt-3a: conditioned medium of Wnt3a ligand, the canonical Wnt ligand (protein, UniProt P56704 19-352, looked up)
Protein Wnt-3a: SYPIWWSLAVGPQYSSLGSQPILCASIPGLVPKQLRFCRNYVEIMPSVAEGIKIGIQECQHQFRGRRWNCTTVHDSLAIFGPVLDKATRESAFVHAIASAGVAFAVTRSCAEGTAAICGCSSRHQGSPGKGWKWGGCSEDIEFGGMVSREFADARENRPDARSAMNRHNNEAGRQAIASHMHLKCKCHGLSGSCEVKTCWWSQPDFRAIGDFLKDKYDSASEMVVEKHRESRGWVETLRPRYTYFKVPTERDLVYYEASPNFCEPNPETGSFGTRDRTCNVSSHGIDGCDLLCCGRGHNARAERRREKCRCVFHWCCYVSCQECTRVYDVHTCK
modifications: conditioned medium
In the case of B1, the “inhibition of β-catenin accumulation by Wnt antagonists sFRP and Dkk-1” value ([2]; antagonist 15 min prior, 5 μM ANDRO or Wnt3a conditioned medium for 1 h) is reported as “inhibit the accumulation of β-catenin in the presence of Wnt3a” and the “time at which total levels of β-catenin increased” value [2] is reported as 45 min.
